From patent publication EP1043331A1, “BONE-RESORPTIVE CYTOKINE INHIBITOR CONTAINING DIENOGEST AS THE ACTIVE INGREDIENT” (MOCHIDA PHARMACEUTICAL CO., LTD., priority 1997, dated 1999)
Marks after values point to notes of the source that are not given here.

Legend:
Assay type in all cases: cell-based, mouse
IL-6 = IL-6 release from murine osteoblast (culture supernatant cytokine assay); settings: 24 hours culture
Procedure: Under anesthesia with pentobarbital sodium (25 mg/kg, intraperitoneal administration), postcava was cut to bleed and kill the animal to death. Then, bilateral femoral bones were resected. This bone was cut with a pair of bone scissors, to remove the bone marrow with a micro-loop. The inner face of the bone was rubbed off with a sharp blade. The resulting matter was agitated in a 10 % collagenase solution (Nitta gelatin) at 37 °C for 20 minutes, and to the resulting mixture was added a culture medium (an MEM culture medium supplemented with 10 % charcoal-treated bovine fetal serum; manufactured by Nissui Pharmaceutical, Co. Ltd.) prior to centrifugation (300×g, 5 minutes and 20 °C). The resulting cells were dispersed in a fresh culture medium and then inoculated on a plastic culture dish (diameter of 35 mm, Primaria (Falcon)). […] Osteoblast was identified by using alkali phosphatase staining as an osteoblast marker. For recovering osteoblast from an animal after ovariectomy, ovariectomy was carried out at age 11 weeks, and the animal was fed for the following 4 weeks, prior to the same treatment.
Dienogest as a test substance was dissolved and diluted in dimethylsulfoxide (DMSO, manufactured by Wako Pure Chemical Industries, Ltd.) for use. As a control substance, furthermore, MPA and danazol were used after they were dissolved and diluted in DMSO. DMSO was used as a solvent control.
The final concentrations of the drug were 10^-11, 10^-10 and 10^-9 M. For experiments, furthermore, three dishes per each group were used.
Using SMRART ™ (Pharmacia Biotech, Uppsala, Sweden), the supernatant was concentrated by about 10 fold, after the termination of culturing. The level of cytokine in the sample was assayed by using assay kits of murine IL-1β, IL-6 and TNF-α (Cytoscreen™, BioSource International, Camarillo, Calif. CA, USA) and europium-labeled streptoavidin (Pharmacia Biotech).

murine osteoclast = test: Pit formation by murine osteoclast on ivory disks; settings: 3 days culture on ivory disk, control 0.16
Procedure: After an ICR mouse of age 13 days was bled to death under anesthesia (pentobarbital sodium), bilateral femoral bones were resected. In an α-MEM culture medium (Gibco), the femoral bones were cut into pieces with a pair of bone scissors for 5 minutes, and the resulting pieces were agitated with a vortex mixer for 30 seconds. The cell suspension was centrifuged (1000 g, 2 min., 15 °C), and the resulting supernatant was discarded. The precipitate was suspended in an α-MEM culture medium, to adjust the suspension to a cell number of 1×10^7 cells/ml.
A purchased ivory piece was processed into a disk of a diameter of 5.5 mm and a thickness of 200 µm, by using a precision low-speed cutter (manufactured by BUEHLER) and a cut blade. The disk was then treated under ultrasonication in distilled water, and was immersed in an α-MEM culture medium (culture medium) supplemented with 10 % bovine fetal serum (Dai-Nippon Pharmaceuticals, Co.) treated with charcoal. The resulting each disk was placed in each well of a 96-well culture plate (Falcon), to which was added 100 µl of the drug solution. The osteoclast suspension was inoculated at 1×10^6 cells(100µl) thereon, for culturing at 37 °C in 5 % CO2/95 % air for 3 days. All the drugs were adjusted to final concentrations of 10^-11, 10^-10 and 10^-9 M. Additionally, five samples per each concentration were experimented.
Absorbency was determined by calculating a phargocytized area on the bone. More specifically, the ivory piece after the treatment with the drugs was wiped with gauze, rinsed with an ultrasonication machine for 30 minutes, and stained with an acid hematoxylin solution (Sigma Chemical Co., Ltd.) for 5 minutes. The piece was then rinsed in distilled water, and the phargocytized absorption area was measured with an image analyzer (Luzex, Nireco) at 100 magnification. Nine different parts were counted per each ivory piece, to calculate the average.

cAMP = cAMP content in murine osteoblast (time-resolved fluorometry); settings: Fig.1
Procedure: According to the method by Johansen, et al. (Journal Bone and Mineral Research, Vol.7, pp.501-509, 1992), osteoblast was collected from the femoral bones of a female SLC : ICR mouse of age 15 weeks. Under anesthesia with pentobarbital sodium (25 mg/kg, intraperitoneal administration), postcava was cut to bleed and kill the animal to death. Then, bilateral femoral bones were resected. This bone was cut with a pair of bone scissors, to remove the bone marrow with a micro-loop. The inner face of the bone was rubbed off with a sharp blade. The resulting matter was agitated in a 10 % collagenase solution (Nitta gelatin) at 37 °C for 20 minutes, and to the resulting mixture was added a culture medium (an MEM culture medium supplemented with 10 % charcoal-treated bovine fetal serum; manufactured by Nissui Pharmaceutical, Co. Ltd.) prior to centrifugation (300×g, 5 minutes and 20 °C). The resulting cells were dispersed in a fresh culture medium and then inoculated on a plastic culture dish (diameter of 35 mm, Primaria (Falcon)). […] Osteoblast was identified by using alkali phosphatase staining as an osteoblast marker. For recovering osteoblast from an animal after ovariectomy, ovariectomy was carried out at age 11 weeks, and the animal was fed for the following 4 weeks, prior to the same treatment. 1×10^4 cells/ml osteoblast suspension (100 µl), a culture medium (890 µl) and a drug solution (10 µl) were added into each well of a plastic 24-well culture plate (Falcon), for culturing at 37 °C in 5 % CO2/95 % air for 24 hours, and then, the resulting culture was centrifuged (300 ×g, 5 minutes, 20°C) to recover the supernatant, which was defined as a cytokine assay sample. […] For experiments, furthermore, three dishes per each group were used. […] After rinsing with a DELFIA rinse solution, an enhancer reagent (100 µl) was added, for agitation at room temperature for 5 minutes, to determine the fluorescence intensity with a time-resolved fluorometer. Based on a preliminarily prepared standard curve, cAMP content was calculated.

[1] = osteoblast of non-treated mouse, 10^-9 M, control 39.9
[2] = osteoblast of non-treated mouse, 10^-10 M, control 39.9
[3] = osteoblast of non-treated mouse, 10^-11 M, control 39.9
[4] = osteoblast of ovariectomized mouse, 10^-9 M, control 109.0
[5] = osteoblast of ovariectomized mouse, 10^-10 M, control 109.0
[6] = osteoblast of ovariectomized mouse, 10^-11 M, control 109.0
[7] = doses of 10^-11, 10^-10 and 10^-9 M

SMILES | IL-6 (IL-6; [1]) | IL-6 (IL-6; [2]) [pg/mL] | IL-6 (IL-6; [3]) [pg/mL] | IL-6 (IL-6; [4]) | IL-6 (IL-6; [5]) | IL-6 (IL-6; [6]) [pg/mL] | pit formation due to murine osteoclast (phargocytized absorption area) (murine osteoclast; 10^-9 M) | pit formation due to murine osteoclast (phargocytized absorption area) (murine osteoclast; 10^-10 M) | pit formation due to murine osteoclast (phargocytized absorption area) (murine osteoclast; 10^-11 M) | cAMP content in murine osteoblast (cAMP; at a concentration of 10^-9 M or more) | cAMP content in murine osteoblast (cAMP; [7])
C[C@]12CCC3=C4CCC(=O)C=C4CC[C@H]3[C@@H]1CC[C@@]2(O)CC#N [Dienogest, 17 α-cyanomethyl-17β-hydroxy-estra-4,9(10)-dien-3-one] | 32.3** pg/ml | 35.5 | 39.3 | 40.1** pg/ml | 47.7** pg/ml | 94.2 | 0.10** | 0.15 | 0.15 | significantly increased | 
C#C[C@]1(O)CC[C@H]2[C@@H]3CCC4=Cc5oncc5C[C@]4(C)[C@H]3CC[C@@]21C [Danazol, danazol] | 42.0** pg/ml | 37.7 | 38.9 | 124.0** pg/ml | 109.4 pg/mL | 111.3 | 0.16 | 0.15 | 0.16 |  | did not affect
CC(=O)O[C@]1(C(C)=O)CC[C@H]2[C@@H]3C[C@H](C)C4=CC(=O)CC[C@]4(C)[C@H]3CC[C@@]21C [MPA, medroxyprogesterone acetate] | 45.1** pg/ml | 37.6 | 38.7 | 122.5** pg/ml | 109.3 pg/mL | 111.4 | 0.16 | 0.16 | 0.16 |  | did not affect
